Laboratory results: the OPERA property sets (Mansouri et al. 2018)

details: not given

For `CC1CCNCC1`, which boiling point is on record?
Its boiling point is 130 °C.

Which results are given for `O=[N+]([O-])c1c(O)cccc1O`?
melting point: 82 °C; ready biodegradability: readily biodegradable

With `CCCC(CC)C1(CC)C(=O)NC(=O)NC1=O` (configuration not stated) as the compound, how does the melting point read?
The melting point was 122 °C.

With `CC(O)CC(F)(F)F` (configuration not stated) as the compound, how does the boiling point read?
Its boiling point is 99.8 °C.

With `S=P(N1CC1)(N1CC1)N1CC1` as the compound, how does the melting point read?
The melting point was 51.5 °C.

With `Oc1ccc2ccc3cccc4ccc1c2c34` as the compound, how does the log10 vapour pressure (mmHg) read?
Its log10 vapour pressure (mmHg) is -8.32.

And the melting point?
The melting point was 180 °C.

Which melting point does the source give for `O=[N+]([O-])C(Br)(Br)Br` here?
Its melting point is 10 °C.

Which melting point does the source give for `CCC(COC(=O)c1cc(OC)c(OC)c(OC)c1)(c1ccccc1)N(C)C` (configuration not stated) here?
Its melting point is 79 °C.

Which boiling point does the source give for `COc1ccc(C)c(N)c1` here?
The boiling point was 253 °C.

What about the melting point of the same compound?
The melting point was 47 °C.

Which melting point does the source give for `CN(C)c1ccccc1C(=O)O` here?
The melting point was 72 °C.

For `O=c1ccocc1`, which boiling point is on record?
The boiling point was 212 °C.

What about the melting point of the same compound?
Its melting point is 32.5 °C.

Which melting point does the source give for `Oc1c(Br)c(Br)c(O)c(Br)c1Br` here?
The melting point was 244 °C.

Which boiling point does the source give for `CCCCC(C)(C)C(C)C` here?
The boiling point was 160 °C.

Which melting point does the source give for `CCCCC(C(N)=O)n1nc2ccccc2n1` (configuration not stated) here?
The melting point was 102 °C.

Which boiling point does the source give for `C=C1CCCCC1` here?
The boiling point was 102 °C.

And the log10 vapour pressure (mmHg)?
Its log10 vapour pressure (mmHg) is 1.6.

And the melting point?
Its melting point is -107 °C.

Which melting point does the source give for `CCN(CC)C(=O)c1ccc(O)c(OC)c1` here?
The melting point was 95 °C.

With `CCCC(=O)C1=C(O)C(C)(C)C(O)=C(Cc2c(OC)cc(O)c(C(=O)CCC)c2O)C1=O` as the compound, how does the melting point read?
Its melting point is 150 °C.

With `O=C(Nc1ccccc1)C(=O)Nc1ccccc1` as the compound, how does the melting point read?
The melting point was 254 °C.

With `CC(C)(C)CCO` as the compound, how does the boiling point read?
Its boiling point is 143 °C.

What about the log10 vapour pressure (mmHg) of the same compound?
Its log10 vapour pressure (mmHg) is 0.389.

And the melting point?
The melting point was -60 °C.

For `C=CCNCC=C`, which boiling point is on record?
Its boiling point is 111 °C.

What about the log10 vapour pressure (mmHg) of the same compound?
Its log10 vapour pressure (mmHg) is 1.31.

What about the melting point of the same compound?
The melting point was -88.4 °C.

Which melting point does the source give for `Oc1ccc(Nc2ccc(O)cc2)cc1` here?
Its melting point is 174 °C.

Which logP does the source give for `Brc1cc(Br)c(Oc2cc(Br)c(Br)cc2Br)c(Br)c1` here?
Its logP is 7.82.

With `O=C(O)c1c(Cl)c(Cl)c(Cl)c(Cl)c1C(O)=Nc1cccc(Cl)c1Cl` as the compound, how does the melting point read?
The melting point was 198 °C.

What does the source list for `FC(F)(I)C(F)(F)C(F)(F)C(F)(F)I`?
boiling point: 150 °C; melting point: -9 °C

For `N#Cc1c2ccccc2cc2ccccc12`, which melting point is on record?
Its melting point is 175 °C.

Which melting point does the source give for `Nc1c(Br)cc([N+](=O)[O-])cc1[N+](=O)[O-]` here?
The melting point was 154 °C.

With `CCOc1ccc(NC(N)=O)cc1` as the compound, how does the melting point read?
The melting point was 174 °C.

With `CC(C)COC(=O)C(=O)OCC(C)C` as the compound, how does the boiling point read?
Its boiling point is 229 °C.

For `Oc1cc(Cl)c(Br)cc1Cl`, which ready biodegradability is on record?
Its ready biodegradability is “not readily biodegradable”.

For `CN1CCN(C(=O)CC(c2ccc(Cl)cc2)(c2ccc(Cl)cc2)c2ccc(Cl)cc2)CC1`, which melting point is on record?
The melting point was 214 °C.

With `CC1=C(CCO)SC2=Nc3nc(C)ncc3CN21` as the compound, how does the melting point read?
Its melting point is 229 °C.

Which melting point does the source give for `COc1cc2c(cc1O)C(Cc1ccc(OC)c(OC)c1)N(C)CC2` (configuration not stated) here?
Its melting point is 127 °C.

Which results are given for `O=C(C(F)(F)F)C(F)(F)Cl`?
boiling point: 8 °C; log10 vapour pressure (mmHg): 3.15; melting point: -133 °C

Which results are given for `O=[N+]([O-])c1ccc(Cl)cc1Cl`?
boiling point: 258 °C; melting point: 34 °C; ready biodegradability: not readily biodegradable

Which melting point does the source give for `Brc1ccncc1` here?
Its melting point is 0.5 °C.

With `CNC(=O)Oc1cc(C(C)(C)C)cc(C(C)(C)C)c1` as the compound, how does the log10 vapour pressure (mmHg) read?
Its log10 vapour pressure (mmHg) is -5.7.

And the melting point?
The melting point was 103 °C.

Which ready biodegradability does the source give for `CCOC(=O)CC(=O)c1ccc(OC)cc1` here?
The ready biodegradability was “readily biodegradable”.

What does the source list for `CC(C)SC(C)C`?
boiling point: 120 °C; log10 Henry constant (atm·m³/mol): -2.48; log10 vapour pressure (mmHg): 1.28; melting point: -78.1 °C

With `c1ccc(-c2nc3ccccc3s2)cc1` as the compound, how does the boiling point read?
Its boiling point is 371 °C.

And the melting point?
Its melting point is 115 °C.

With `CCOC(=O)CCC(=O)OC` as the compound, how does the boiling point read?
Its boiling point is 208 °C.

For `O=C(O)c1ccc([N+](=O)[O-])c(O)c1`, which melting point is on record?
The melting point was 230 °C.

With `CCCCCCCCCCCCC=O` as the compound, how does the melting point read?
Its melting point is 14 °C.

For `OCc1cccc(O)c1`, which melting point is on record?
Its melting point is 73 °C.

For `CC(C)(C)NC[C@H](O)COc1nsnc1N1CCOCC1`, which melting point is on record?
The melting point was 202 °C.

For `CC1=CCC(C(C)C)C=C1` (configuration not stated), which boiling point is on record?
The boiling point was 172 °C.

What about the log10 vapour pressure (mmHg) of the same compound?
Its log10 vapour pressure (mmHg) is 0.147.

Which results are given for `Cc1cc(O)c(C(C)C)cc1Cl`?
boiling point: 258 °C; melting point: 63 °C

With `CCCC(CC)(CC)CC` as the compound, how does the boiling point read?
Its boiling point is 166 °C.

Which boiling point does the source give for `FC(Cl)C(F)(F)Cl` (configuration not stated) here?
Its boiling point is 29.5 °C.

And the log10 vapour pressure (mmHg)?
Its log10 vapour pressure (mmHg) is 2.79.

What about the melting point of the same compound?
Its melting point is -78 °C.

For `O=C1/C(=C2\Nc3ccccc3C2=O)Nc2ccccc21`, which ready biodegradability is on record?
The ready biodegradability was “not readily biodegradable”.

Which melting point does the source give for `CCc1ccccc1Nc1ccccc1CC` here?
The melting point was 29 °C.

Which melting point does the source give for `O=c1occcc1O` here?
The melting point was 93.8 °C.

Which boiling point does the source give for `CCCCn1cccc1` here?
The boiling point was 170 °C.

Which ready biodegradability does the source give for `CCCCCCC(O)CCCCCCCCCCC(=O)O` (configuration not stated) here?
Its ready biodegradability is “readily biodegradable”.

What does the source list for `Clc1cc(Cl)c(-c2cc(Cl)c(Cl)c(Cl)c2Cl)cc1Cl`?
log10 Henry constant (atm·m³/mol): -5; log10 Koa: 9.88; log10 vapour pressure (mmHg): -6.01; logP: 7.72

For `OC(O)C(Cl)(Cl)Cl`, which boiling point is on record?
The boiling point was 98 °C.

What about the log10 vapour pressure (mmHg) of the same compound?
Its log10 vapour pressure (mmHg) is 1.18.

What about the melting point of the same compound?
The melting point was 57 °C.

For `CC/C=C\CCO`, which ready biodegradability is on record?
Its ready biodegradability is “readily biodegradable”.

Which boiling point does the source give for `FC(F)(F)c1ccccc1Br` here?
Its boiling point is 168 °C.

For `CCN1CCN(c2cc3c(cc2F)c(=O)c(C(=O)O)cn3C2CC2)CC1`, which melting point is on record?
The melting point was 220 °C.

For `COc1ccc([C@@H]2CC(=O)c3c(O)cc(O[C@@H]4O[C@H](CO[C@@H]5O[C@@H](C)[C@H](O)[C@@H](O)[C@H]5O)[C@@H](O)[C@H](O)[C@H]4O)cc3O2)cc1O`, which melting point is on record?
Its melting point is 262 °C.

For `CC(C)Oc1ccc(Nc2ccccc2)cc1`, which melting point is on record?
Its melting point is 79 °C.

same assay, conditions: fish

For `c1ccc(C2CCCC(C3CCCCC3)C2)cc1` (configuration not stated), which log10 biotransformation half-life (days) is on record?
The log10 biotransformation half-life (days) was 0.45.

Which log10 biotransformation half-life (days) does the source give for `Cc1cccc2c1ccc1ccccc12` here?
The log10 biotransformation half-life (days) was 0.63.

Which results are given for `O=C1c2ccccc2C(=O)c2cc(Cl)ccc21`?
log10 BCF: 2.28; log10 biotransformation half-life (days): -0.36

Which log10 BCF does the source give for `Brc1cc(Br)c(Oc2cc(Br)c(Br)cc2Br)c(Br)c1` here?
Its log10 BCF is 6.15.

And the log10 biotransformation half-life (days)?
The log10 biotransformation half-life (days) was 2.03.

With `O=[N+]([O-])c1ccc(Cl)cc1Cl` as the compound, how does the log10 BCF read?
Its log10 BCF is 2.07.

What about the log10 biotransformation half-life (days) of the same compound?
Its log10 biotransformation half-life (days) is 0.83.
